As usually defined, the IC50 is the midpoint of a concentration-inhibition curve. Lower therefore signals higher potency. As usually defined, the melting point is the temperature, or range, at which the solid turns liquid.

One data set has as its system A549. Nature of the data set: Antiproliferative assay (resazurin, 72 h). Format: cell-based, human. As to the method:
(§1) Colon adenocarcinoma (HT-29) and T-cell leukemia (Jurkat) cells were grown in RPMI-1640 medium (Gibco, Milano, Italy). Promyelocytic leukemia cells (HL-60), non-small cell lung carcinoma (A549), cervix carcinoma (HeLa) and breast adenocarcinoma (MDA-MB-231) cells were grown in DMEM medium (Gibco, Milano, Italy). Both media were supplemented with 115 units/mL of penicillin G (Gibco, Milano, Italy), 115 μg/mL of streptomycin (Invitrogen, Milano, Italy) and 10% fetal bovine serum (Invitrogen, Milano, Italy). All the cell lines used were purchased from the American Type Culture Collection (ATCC, Manassas, VA, USA). Stock solutions (10 mM) of the compounds were obtained by dissolving them in DMSO.
(§2) The cells were seeded in 96-well plates at the appropriate density for each cell line. After 24 h, the cells were treated by performing serial 5-fold dilutions of the tested compounds starting from a concentration of 10 μM. All experimental conditions were tested in triplicate for statistical analysis. The plates were incubated for 72 h at 37 °C in a humidified 5% CO2 atmosphere. At the end of the incubation period, 10 μL of 100 μg/mL resazurin solution was added to each well; then, the plate was re-incubated for 3–4 h. The fluorescence of the wells in each plate was monitored using a Spark 10 M spectrophotometer (Tecan Group Ltd., Mannedorf, Switzerland) with a 535 nm excitation wavelength and a 600 nm emission wavelength.
(The colour change of resazurin is a common sign of viable cells or microbes.)

A further data set concerns HT-29. Nature of the data set: Antiproliferative assay (resazurin, 72 h). The conditions noted are these: mean ± SE, 72 h. Format: cell-based, human. As to the method:
as §1, §2

The next data set deals with HeLa. Nature of the data set: Antiproliferative assay (resazurin, 72 h). Format: cell-based, human. The method, then: as §1, §2
The next data set concerns Jurkat. As to the kind of experiment: Antiproliferative assay (resazurin, 72 h). Format: cell-based, human. As to conditions: mean ± SE, 72 h. The method, then:
as §1, §2

Another data set relates to MDA-MB-231. Nature of the data set: Antiproliferative assay (resazurin, 72 h). It is filed as cell-based, human. As to conditions: mean ± SE, 72 h. As to the method:
as §1, §2

Setting [1] is: Homo sapiens, A549, Table 1, mean ± SE.
Where [2] appears, read: Homo sapiens, HeLa, Table 1, mean ± SE.
Setting [3] is: Homo sapiens, MDA-MB-231, Table 1.

`COc1cc(Nc2cc(C)nc3nc(NCCc4ccc(F)cc4)nn23)cc(OC)c1OC` [Compound 7aa, N^2-(4-Fluorophenethyl)-5-methyl-N^7-(3,4,5-trimethoxyphenyl)-[1,2,4]triazolo [1,5-a]pyrimidine-2,7-diamine] returned a melting point of 150 to 152 °C. Also, the IC50 in the data set on A549 (setting [1]) was over 10000 nM. The same molecule displayed an IC50 in the data set with HT-29 (Homo sapiens, HT-29, Table 1) of 2830 ± 220 nM. In the data set with HeLa (setting [2]), this molecule had an IC50 of 2500 ± 270 nM. Half-maximal inhibition in the data set on Jurkat (Homo sapiens, Jurkat, Table 1) (IC50) required 9610 ± 890 nM. In the data set on MDA-MB-231 (setting [3]), this molecule came in with an IC50 of over 10000 nM.

In turn, `COc1cc(Nc2cc(C)nc3nc(NCCc4ccc(Cl)cc4)nn23)cc(OC)c1OC` [Compound 7ab, N^2-(4-Chlorophenethyl)-5-methyl-N^7-(3,4,5-trimethoxyphenyl)-[1,2,4]triazolo [1,5-a]pyrimidine-2,7-diamine] had a melting point of 196 to 198 °C. For the same molecule, the IC50 with A549 (setting [1]) was over 10000 nM. The IC50 in the data set with HT-29 (Homo sapiens, HT-29, Table 1) is over 10000 nM. Moreover, half-maximal inhibition with HeLa (setting [2]) (IC50) required 5810 ± 480 nM. Moreover, the IC50 in the data set on Jurkat (Homo sapiens, Jurkat, Table 1) stood at 5940 ± 500 nM. For the same molecule, in the data set with MDA-MB-231 (setting [3]), the IC50 was over 10000 nM.

The molecule `COc1ccc(CCNc2nc3nc(C)cc(Nc4cc(OC)c(OC)c(OC)c4)n3n2)cc1` [Compound 7ac, N^2-(4-Methoxyphenethyl)-5-methyl-N^7-(3,4,5-trimethoxyphenyl)-[1,2,4]triazolo [1,5-a]pyrimidine-2,7-diamine] registered a melting point of 214 to 216 °C. Besides, the IC50 in the data set on A549 (setting [1]) turned out to be 8880 ± 880 nM. Also, half-maximal inhibition in the data set on HT-29 (Homo sapiens, HT-29, Table 1) (IC50) was put at 6880 ± 490 nM. Also, in the data set with HeLa (setting [2]), half-maximal inhibition (IC50) required 5050 ± 630 nM. Besides, in the data set with Jurkat (Homo sapiens, Jurkat, Table 1), the IC50 is 9590 ± 1170 nM. The same molecule showed an IC50 in the data set on MDA-MB-231 (setting [3]) of 1650 ± 190 nM.

Regarding `COc1cc(Nc2cc(C)nc3nc(Nc4ccccc4)nn23)cc(OC)c1OC` [Compound 7d, 5-Methyl-N2-phenyl-N7-(3,4,5-trimethoxyphenyl)-[1,2,4]triazolo [1,5-a]pyrimidine-2,7-diamine], the melting point came out at 241 °C. In addition, in the data set on A549 (setting [1]), the half-inhibitory concentration (IC50) was 2300 ± 120 nM. The molecule also displayed an IC50 in the data set on HT-29 (Homo sapiens, HT-29, Table 1) of 820 ± 70 nM. Further, the IC50 in the data set on HeLa (setting [2]) came out at 520 ± 60 nM. For the same molecule, the IC50 in the data set on Jurkat (Homo sapiens, Jurkat, Table 1) turned out to be 590 ± 10 nM. The IC50 with MDA-MB-231 (setting [3]) came out at 1430 ± 140 nM.

For the molecule `COc1cc(Nc2cc(C)nc3nc(Nc4ccc(F)cc4)nn23)cc(OC)c1OC` [Compound 7e, N2-(4-Fluorophenyl)-5-methyl-N7-(3,4,5-trimethoxyphenyl)-[1,2,4]triazolo [1,5-a]pyrimidine-2,7-diamine], the melting point worked out at 247 °C. In the data set with A549 (setting [1]), this molecule registered an IC50 of 1020 ± 80 nM. In addition, the midpoint of inhibition in the data set on HT-29 (Homo sapiens, HT-29, Table 1), the IC50, lay at 690 ± 60 nM. Further, the IC50 with HeLa (setting [2]) came to 390 ± 20 nM. For the same molecule, in the data set on Jurkat (Homo sapiens, Jurkat, Table 1), half-maximal inhibition (IC50) was put at 820 ± 1 nM. Moreover, the IC50 with MDA-MB-231 (setting [3]) came to 710 ± 70 nM.

For `COc1cc(Nc2cc(C)nc3nc(Nc4ccc(C)cc4)nn23)cc(OC)c1OC` [Compound 7g, 5-Methyl-N2-(p-tolyl)-N7-(3,4,5-trimethoxyphenyl)-[1,2,4]triazolo [1,5-a]pyrimidine-2,7-diamine], the melting point amounted to 234 °C. In addition, the IC50 with A549 (setting [1]) was found to be 1550 ± 190 nM. The molecule also showed an IC50 with HT-29 (Homo sapiens, HT-29, Table 1) of 940 ± 110 nM. This molecule also had an IC50 in the data set with HeLa (setting [2]) of 500 ± 40 nM. The molecule also gave an IC50 with Jurkat (Homo sapiens, Jurkat, Table 1) of 850 ± 20 nM. Further, the IC50 in the data set on MDA-MB-231 (setting [3]) was determined as 1510 ± 140 nM.

With `COc1ccc(Nc2nc3nc(C)cc(Nc4cc(OC)c(OC)c(OC)c4)n3n2)cc1` [Compound 7h, N2-(4-Methoxyphenyl)-5-methyl-N7-(3,4,5-trimethoxyphenyl)-[1,2,4]triazolo [1,5-a]pyrimidine-2,7-diamine], the melting point stood at 215 °C. The same molecule registered an IC50 in the data set on A549 (setting [1]) of 3760 ± 140 nM. This molecule registered a half-maximal inhibitory concentration (IC50) with HT-29 (Homo sapiens, HT-29, Table 1) of 920 ± 90 nM. Further, the midpoint of inhibition with HeLa (setting [2]), the IC50, lay at 520 ± 30 nM. For the same molecule, in the data set on Jurkat (Homo sapiens, Jurkat, Table 1), inhibition was half-maximal at 1010 ± 130 nM (IC50). In the data set on MDA-MB-231 (setting [3]), this molecule came in with a half-maximal inhibitory concentration (IC50) of 1170 ± 130 nM.

For `Cc1cc(Nc2cccc(Cl)c2)n2nc(NCCCc3ccccc3)nc2n1` [Compound 8t], the IC50 with A549 (Table 2, mean ± SE) amounted to 260 ± 70 nM; with HT-29 (Table 2) it was 380 ± 30 nM; in the data set with HeLa (Table 2, mean ± SE), 153 ± 10 nM; with Jurkat (Table 2) it was 140 ± 70 nM; in the data set with MDA-MB-231 (Table 2) it was 1320 ± 870 nM.
